In brackets after ≈: the same amount, converted by molar mass.
Test system: Staphylococcus aureus
Assay: In vitro soap bacteriostatic test (agar dilution, spot inoculation, 35°, 48 hours)
Assay type: cell-based
Conditions: for MIC: Staphylococcus aureus, without soap, read-out: Compound Activity Without Soap: minimum concentration where S. aureus growth is completely inhibited; for Compound Activity With Soap: minimum concentration where S. aureus growth is completely inhibited: ratio of soap to compound 100:1
Protocol: The antibacterial properties of the compounds prepared in Examples 1 - 14 were tested in soap. The in vitro soap bacteriostatic tests were conducted as follows: The compound is dissolved in a suitable solvent, usually dimethylformamide, to give a 6% solution. One-half ml. aliquot was added to 100 ml. of 3% solution of bar soap stock solution. The solid soap used was a neutral white toilet soap of the "LUX" type. The fatty acids in this soap were of the following composition: This yields an aqueous soap solution containing 30,000 mcg./ml. soap and 300 mcg./ml. compound. The soap/compound ratio in the latter is 100/l. A two-fold serial dilution series is prepared with this solution using sterile distilled water in test tubes such that the final volume in each tube is 2.0 ml. To each test tube is added 28 ml. of molten Dextrose Trypticase Extract Agar (B.B.L.). The tube contents were poured into sterile Petri plates and allowed to harden. The highest final concentration of compound in the serial dilution series is 20 mcg./ml. Plates were spot inoculated with a broth culture of Staphylococcus aureus and incubated at 35° for 48 hours. The lowest concentration completely inhibiting growth of the test organism, in mcg./ml. is recorded as the bacteriostatic concentration of the compound. Tests in the absence of soap are made in a similar manner except that all dilutions are made in solvent. The final concentration in the agar should not be greater than 5%. The results of these tests with the compounds of the present invention as compared with compounds having chemical structures closely related to the compounds of the present invention (designated by the symbol "C") are set forth in the Table. Column 1 contains the data as to the activity of the test solution without soap; column 2 refers to tests in which the ratio of soap to compound is 100:1. […] Growth is observed at the next lower concentration.

Row | SMILES | MIC | Compound Activity With Soap: minimum concentration where S. aureus growth is completely inhibited
1 | O=C(Nc1ccc(Cl)c(C(F)(F)F)c1)c1ccc(Cl)cc1 [Compound 8, 4,4'-Dichloro-3'(trifluoromethyl) benzanilide] | 2.5 µg/mL (≈ 7.48 µM) | 0.625 µg/mL
2 | O=C(Nc1ccc(Cl)c(C(F)(F)F)c1)c1ccc(Br)cc1 [Compound 10, 4-bromo-4'-chloro-α,α,α-trifluoro-m-benzotoluidide] | 0.625 µg/mL (≈ 1.65 µM) | 0.312 µg/mL
3 | O=C(Nc1ccc(Cl)c(C(F)(F)F)c1)c1ccc(Cl)c(Cl)c1 [Compound 12] | > 20 µg/mL | 0.312 µg/mL
4 | O=C(Nc1ccc(Br)c(C(F)(F)F)c1)c1ccc(Cl)cc1 [Compound 15, 4'-bromo-4-chloro-α,α,α-trifluoro-m-benzotoluidide] | 0.625 µg/mL (≈ 1.65 µM) | 0.625 µg/mL
5 | O=C(Nc1ccc(Br)c(C(F)(F)F)c1)c1ccc(Cl)c(Cl)c1 [Compound 16, 4'-bromo-3,4-dichloro-α,α,α-trifluoro-m-benzotoluidide] | > 20 µg/mL | 0.312 µg/mL
6 | O=C(Nc1ccc(F)c(C(F)(F)F)c1)c1ccc(Cl)cc1 [Compound 17, 4-chloro-α,α,α, 4'-tetrafluoro-m-benzotoluidide] | > 20 µg/mL | 1.25 µg/mL
7 | O=C(Nc1ccc(F)c(C(F)(F)F)c1)c1ccc(Br)cc1 [Compound 18, 4-bromo-α,α,α, 4' -tetrafluoro-m-benzotoluidide] | > 20 µg/mL | 1.25 µg/mL
8 | CC(C)(C)c1ccc(C(=O)Nc2ccc(Cl)c(C(F)(F)F)c2)cc1 [Compound 22] | > 20 µg/mL | 2.5 µg/mL
9 | O=C(Nc1cccc(C(F)(F)F)c1)c1ccccc1Br [Compound C2] | > 10 µg/mL | B (Inactive at 10 mcg./ml. (highest concentration tested))
10 | O=C(Nc1ccccc1C(F)(F)F)c1ccccc1Cl [Compound C8] | > 10 µg/mL | B (Inactive at 10 mcg./ml. (highest concentration tested))
11 | O=C(Nc1ccc(C(F)(F)F)cc1)c1ccc(Cl)cc1 [Compound C9] | > 10 µg/mL | B (Inactive at 10 mcg./ml. (highest concentration tested))
12 | O=C(Nc1ccc(C(F)(F)F)cc1)c1ccc(F)cc1 [Compound C10] | 20 µg/mL (≈ 70.6 µM) | 5.0 µg/mL
13 | O=C(Nc1ccc(Cl)c(C(F)(F)F)c1)c1ccccc1Cl [Compound C12] | > 20 µg/mL | 10.0 µg/mL
14 | O=C(Nc1ccc(Cl)c(C(F)(F)F)c1)c1ccc(F)cc1 [Compound C13] | > 20 µg/mL | 5.0 µg/mL
15 | O=C(Nc1ccc(Cl)c(C(F)(F)F)c1)c1ccccc1Br [Compound C14] | > 10 µg/mL | B (Inactive at 10 mcg./ml. (highest concentration tested))
16 | O=C(Nc1cc(C(F)(F)F)ccc1Cl)c1ccc(Cl)cc1 [Compound C15] | > 10 µg/mL | B (Inactive at 10 mcg./ml. (highest concentration tested))
17 | O=C(Nc1cc(C(F)(F)F)ccc1Cl)c1ccccc1Cl [Compound C17] | > 10 µg/mL | B (Inactive at 10 mcg./ml. (highest concentration tested))
18 | O=C(Nc1cc(C(F)(F)F)ccc1Cl)c1ccc(F)cc1 [Compound C18] | > 10 µg/mL | B (Inactive at 10 mcg./ml. (highest concentration tested))
19 | O=C(Nc1ccc(Cl)cc1C(F)(F)F)c1ccc(Cl)cc1 [Compound C20] | > 10 µg/mL | B (Inactive at 10 mcg./ml. (highest concentration tested))
20 | O=C(Nc1ccc(Cl)cc1C(F)(F)F)c1ccccc1Cl [Compound C22] | > 10 µg/mL | B (Inactive at 10 mcg./ml. (highest concentration tested))
21 | N#CSc1ccc(NC(=O)c2ccc(Cl)cc2)cc1C(F)(F)F [Compound C23] | > 20 µg/mL | 5.0 µg/mL
22 | N#CSc1ccc(NC(=O)c2ccc(Cl)c(Cl)c2)cc1C(F)(F)F [Compound C24] | > 10 µg/mL | B (Inactive at 10 mcg./ml. (highest concentration tested))

Now from value to compound, other results behind:

Row | MIC | SMILES | Compound Activity With Soap: minimum concentration where S. aureus growth is completely inhibited
23 | 10 µg/mL (≈ 33.4 µM) | O=C(Nc1cccc(C(F)(F)F)c1)c1ccc(Cl)cc1 [Compound 1, 4-Chloro-3'-(trifluoromethyl) benzanilide] | 0.625 µg/mL
24 | > 20 µg/mL | O=C(Nc1cccc(C(F)(F)F)c1)c1cccc(Cl)c1 [Compound 2] | 2.5 µg/mL
25 | > 20 µg/mL | O=C(Nc1cccc(C(F)(F)F)c1)c1ccc(Br)cc1 [Compound 3] | 2.5 µg/mL
26 | > 20 µg/mL | O=C(Nc1cccc(C(F)(F)F)c1)c1cccc(Br)c1 [Compound 4] | 2.5 µg/mL
27 | > 20 µg/mL | O=C(Nc1cccc(C(F)(F)F)c1)c1ccc(Cl)c(Cl)c1 [Compound 5] | 2.5 µg/mL
28 | > 20 µg/mL | O=C(Nc1cccc(C(F)(F)F)c1)c1cc(Cl)cc(Cl)c1 [Compound 6] | 2.5 µg/mL
29 | 0.625 µg/mL (≈ 1.7 µM) | O=C(Nc1ccc(Cl)c(C(F)(F)F)c1)c1ccc(C(F)(F)F)cc1 [Compound 7, 4'-Chloro-α,α,α,α',α ',α ', -hexafluoro-p-tolu-m-toluidide] | 0.312 µg/mL
30 | > 20 µg/mL | O=C(Nc1ccc(Cl)c(C(F)(F)F)c1)c1cccc(Cl)c1 [Compound 9, 3,4'-dichloro-α,α,α-trifluoro-m-benzo-toluidide] | 0.625 µg/mL
31 | > 20 µg/mL | O=C(Nc1ccc(Cl)c(C(F)(F)F)c1)c1cccc(Br)c1 [Compound 11] | 2.5 µg/mL
32 | > 20 µg/mL | O=C(Nc1ccc(Br)c(C(F)(F)F)c1)c1cccc(Br)c1 [Compound 14, 3,4'-dibromo-α,α,α-trifluoro-m-benzotoluidide] | 1.25 µg/mL
33 | > 20 µg/mL | O=C(Nc1cc(C(F)(F)F)cc(C(F)(F)F)c1)c1ccc(Cl)c(Cl)c1 [Compound 21, 3,4-dichloro-α,α,α,α',α',α'-hexafluorobenzo-3',5'-xylidide] | 0.312 µg/mL
34 | > 20 µg/mL | O=C(Nc1cccc(C(F)(F)F)c1)c1ccccc1Cl [Compound C1] | 10.0 µg/mL
35 | > 20 µg/mL | O=C(Nc1cccc(C(F)(F)F)c1)c1ccc(F)cc1 [Compound C3] | 10.0 µg/mL
36 | > 20 µg/mL | O=C(Nc1cccc(C(F)(F)F)c1)c1cccc(C(F)(F)F)c1 [Compound C4] | 10.0 µg/mL
37 | > 20 µg/mL | O=C(Nc1cccc(C(F)(F)F)c1)c1ccccc1 [Compound C5] | 10.0 µg/mL
38 | > 10 µg/mL | O=C(Nc1ccc(Cl)c(C(F)(F)F)c1)c1cc(Cl)cc(Cl)c1 [Compound C11] | B (Inactive at 10 mcg./ml. (highest concentration tested))
39 | > 10 µg/mL | O=C(Nc1cc(C(F)(F)F)ccc1Cl)c1cccc(Cl)c1 [Compound C16] | B (Inactive at 10 mcg./ml. (highest concentration tested))
40 | > 10 µg/mL | O=C(Nc1cc(C(F)(F)F)ccc1Cl)c1cccc(Br)c1 [Compound C19] | B (Inactive at 10 mcg./ml. (highest concentration tested))
41 | > 10 µg/mL | O=C(Nc1ccc(Cl)cc1C(F)(F)F)c1cccc(Cl)c1 [Compound C21] | B (Inactive at 10 mcg./ml. (highest concentration tested))
42 | > 20 µg/mL | O=C(Nc1cc(C(F)(F)F)cc(C(F)(F)F)c1)c1cccc(Cl)c1 [Compound C25] | 10.0 µg/mL
43 | > 20 µg/mL | O=C(Nc1cc(C(F)(F)F)cc(C(F)(F)F)c1)c1ccccc1Cl [Compound C26] | 10.0 µg/mL
